Assay results reported in ChEMBL document CHEMBL4665695, “Antifungal Phenols from Woodfordia uniflora Collected in Oman” (2020).
≈ marks a conversion by molar mass, not a printed value.

Tests used:
Type in all cases: functional
Cryptococcus neoformans [1] = assay: Antifungal activity against Cryptococcus neoformans H99 by CLSI protocol-based broth serial dilution method
Cryptococcus neoformans [2] = assay: Antifungal activity against Cryptococcus neoformans JEC21 by CLSI protocol-based broth serial dilution method
Candida albicans = assay: Antifungal activity against Candida albicans SC5314 by CLSI protocol-based broth serial dilution method

Compound	MIC (Cryptococcus neoformans [1]) [µM]	MIC (Cryptococcus neoformans [2]) [µM]	MIC (Candida albicans) [µM]
C[C@]12OC(=O)C[C@H]1[C@H]1Oc3cc(O)cc(O)c3C[C@H]1O2	180 (≈ 50 µg/mL)	180 (≈ 50 µg/mL)	> 180
COc1cc(O)c2c(=O)c(O)c(-c3ccc(O[C@@H]4O[C@H](CO)[C@@H](O)[C@H](O)[C@H]4O)c(O)c3)oc2c1	52.3 (≈ 25 µg/mL)	105 (≈ 50 µg/mL)	> 105
O=C(OC[C@H]1O[C@@H](Oc2c(-c3ccc(O)c(O)c3)oc3cc(O)cc(O)c3c2=O)[C@H](O)[C@@H](O)[C@@H]1O)c1cc(O)c(O)c(O)c1	2.6 (≈ 1.6 µg/mL)	–	> 325
COc1c(O)cc(C(=O)O)cc1O	67.9 (≈ 12.5 µg/mL)	272 (≈ 50 µg/mL)	> 272
O=C(Oc1cc(O)c2c(c1)O[C@H](c1ccc(O)c(O)c1)[C@@H](O)C2)c1cc(O)c(O)c(O)c1	1.8 (≈ 0.796 µg/mL)	–	56.6 (≈ 25 µg/mL)
O=C(OC[C@H]1O[C@@H](Oc2c(-c3ccc(O)cc3)oc3cc(O)cc(O)c3c2=O)[C@H](O)[C@@H](O)[C@@H]1O)c1cc(O)c(O)c(O)c1	20.8 (≈ 12.5 µg/mL)	83.3 (≈ 50 µg/mL)	> 83.3
COc1cc(O)c2c(=O)c(O[C@@H]3O[C@H](COC(=O)c4cc(O)c(O)c(O)c4)[C@@H](O)[C@H](O)[C@H]3O)c(-c3ccc(O)c(O)c3)oc2c1	10 (≈ 6.31 µg/mL)	–	> 317
COc1cc(O)c2c(=O)c(O[C@@H]3O[C@@H](C)[C@H](O)[C@@H](O)[C@H]3O)c(-c3ccc(O)c(O)c3)oc2c1	27 (≈ 12.5 µg/mL)	–	> 433
Oc1cc(O)c2c(c1)O[C@H](c1ccc(O)c(O)c1)[C@@H](O)C2 [CIANIDANOL]	10.7 (≈ 3.11 µg/mL)	–	> 690
CC(=O)[C@@H](CC(=O)O)[C@H]1Oc2cc(O)cc(O)c2C[C@@H]1O	169 (≈ 50 µg/mL)	169 (≈ 50 µg/mL)	> 169
O=C(O)c1cc(O)c(O)c(O)c1 [GALLIC ACID]	147 (≈ 25 µg/mL)	147 (≈ 25 µg/mL)	> 294
O=C(Oc1cc(O)c2c(c1)O[C@@H](c1ccc(O)c(O)c1)CC2)c1cc(O)c(O)c(O)c1	1.9 (≈ 0.81 µg/mL)	3.8 (≈ 1.62 µg/mL)	14.8 (≈ 6.31 µg/mL)
CCOC(=O)c1cc(O)c(O)c(O)c1 [ETHYLGALLATE]	126 (≈ 25 µg/mL)	252 (≈ 50 µg/mL)	> 252
Oc1cc(O)c2c(c1)O[C@H](c1ccc(O)c(O)c1)[C@@H](O)[C@@H]2c1c(O)cc(O)c2c1O[C@H](c1ccc(O)c(O)c1)[C@@H](O)C2	5.4 (≈ 3.12 µg/mL)	5.4 (≈ 3.12 µg/mL)	> 86.5
O=C(Oc1cc([C@H]2Oc3cc(O)cc(O)c3C[C@@H]2O)ccc1O)c1cc(O)c(O)c(O)c1	113 (≈ 50 µg/mL)	113 (≈ 50 µg/mL)	> 113
O=C(Oc1ccc([C@H]2Oc3cc(O)cc(O)c3C[C@@H]2O)cc1O)c1cc(O)c(O)c(O)c1	113 (≈ 50 µg/mL)	113 (≈ 50 µg/mL)	56.6 (≈ 25 µg/mL)
O=C(Oc1cc(O)c2c(c1)O[C@H](c1ccc(O)c(O)c1)CC2)c1cc(O)c(O)c(O)c1	1.9 (≈ 0.81 µg/mL)	3.8 (≈ 1.62 µg/mL)	14.8 (≈ 6.31 µg/mL)
O=C(O[C@H]1[C@H](c2c(O)cc(O)c3c2O[C@H](c2ccc(O)c(O)c2)[C@@H](O)C3)c2c(O)cc(O)cc2O[C@@H]1c1ccc(O)c(O)c1)c1cc(O)c(O)c(O)c1	4.2 (≈ 3.07 µg/mL)	8.5 (≈ 6.21 µg/mL)	17.1 (≈ 12.5 µg/mL)
OC(Cn1cncn1)(Cn1cncn1)c1ccc(F)cc1F [FLUCONAZOLE]	25.5 (≈ 7.81 µg/mL)	6.5 (≈ 1.99 µg/mL)	1.6 (≈ 0.49 µg/mL)
COc1cc(O)c2c(=O)c(O[C@@H]3O[C@@H](C)[C@H](O)[C@@H](O)[C@H]3O)c(-c3ccc(O)cc3)oc2c1	56 (≈ 25 µg/mL)	56 (≈ 25 µg/mL)	> 112
O=c1c(O[C@@H]2O[C@H](CO)[C@@H](O)[C@H](O)[C@H]2O)c(-c2ccc(O)c(O)c2)oc2cc(O)cc(O)c12 [ISOQUERCETIN]	53.9 (≈ 25 µg/mL)	108 (≈ 50 µg/mL)	> 108
